According to the supplement of paper PMC4862054:

Columns and labels:
Test in all cases: normalised response (% of control), CellTox Green; higher = less cell death (100 = DMSO, 0 = benzethonium chloride kill control)
Settings in all cases: incubation time: 72 h
CAL-51 = tested on: CAL-51
Outline: (§1)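 In 384-well plates holding compound at 5 concentrations in 10-fold steps over a 10,000-fold range specific to each compound, breast cancer cell lines were seeded as 20 µl suspension and incubated 72 h. CellTox Green fluorescence was measured at 485/520 nm, after which CellTiter-Glo luminescence was measured following 10 min at room temperature. Plate signals were normalised to 0.1 % DMSO (100) and a positive kill control (0), and each value is the normalised signal at a single concentration.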

MDA-MB-231 = tested on: MDA-MB-231
Outline: as §1

CAL-85-1 = tested on: CAL-85-1
Outline: as §1

HCC1937 = tested on: HCC1937
Outline: as §1

CAL-148 = tested on: CAL-148
Outline: as §1

Hs578T = tested on: Hs578T
Outline: as §1

MDA-MB-436 = tested on: MDA-MB-436
Outline: as §1

BT-474 = tested on: BT-474
Outline: as §1

HCC1143 = tested on: HCC1143
Outline: as §1

MDA-MB-453 = tested on: MDA-MB-453
Outline: as §1

BT-549 = tested on: BT-549
Outline: as §1

HCC1599 = tested on: HCC1599
Outline: as §1

MFM-223 = tested on: MFM-223
Outline: as §1

HDQ-P1 = tested on: HDQ-P1
Outline: as §1

| SMILES | normalised response (CAL-51) | normalised response (MDA-MB-231) | normalised response (CAL-85-1) | normalised response (HCC1937) | normalised response (CAL-148) | normalised response (Hs578T) | normalised response (MDA-MB-436) | normalised response (BT-474) | normalised response (HCC1143) | normalised response (MDA-MB-453) | normalised response (BT-549) | normalised response (HCC1599) | normalised response (MFM-223) | normalised response (HDQ-P1) |
| --- | --- | --- | --- | --- | --- | --- | --- | --- | --- | --- | --- | --- | --- | --- |
| COc1cc2c(Oc3ccc(NC(=O)C4(C(=O)Nc5ccc(F)cc5)CC4)cc3F)ccnc2cc1OCCCN1CCOCC1 [Foretinib] (1000 nM) | 37.9% | -15.4% | 76.8% | 99.8% | 33.1% | 75.7% | 81.9% | 97.1% | 46% | 93.5% | 88.3% | 92% | 84.4% | 58.9% |
| NC(=O)NO [Hydroxyurea] (100000 nM) | 5.76% | 118% | 85.8% | 111% | 88.3% | – | – | 97.4% | 118% | 91.5% | 109% | 104% | 96.8% | 110% |
| O=NN(CCCl)C(=O)NC1CCCCC1 [Lomustine] (10000 nM) | 108% | – | 108% | 57.4% | 94.2% | 113% | 86.5% | 95.2% | 108% | 100% | 93.2% | 103% | 103% | 98.9% |
| O=C(O)CC[C@H]1CC[C@@](c2cc(F)ccc2F)(S(=O)(=O)c2ccc(Cl)cc2)CC1 [MK-0752] (1000 nM) | 118% | 111% | 70.6% | 104% | – | 91.9% | 96.9% | 104% | 88.8% | – | 107% | 109% | 57.7% | 110% |
| NC(=O)c1cccc2cn(-c3ccc([C@@H]4CCCNC4)cc3)nc12 [MK-4827] (10000 nM) | 63.6% | 139% | 70.3% | – | 79.6% | 118% | 105% | 97.5% | 127% | 105% | 103% | 97.4% | 98.7% | 97.9% |
| CO[C@H](C(=O)[C@@H](O)[C@@H](C)O)[C@@H]1Cc2cc3cc(O[C@H]4C[C@@H](O[C@@H]5C[C@@H](O)[C@H](O)[C@@H](C)O5)[C@H](O)[C@@H](C)O4)c(C)c(O)c3c(O)c2C(=O)[C@H]1O[C@H]1C[C@@H](O[C@@H]2C[C@@H](O)[C@@H](O[C@@H]3C[C@](C)(O)[C@H](O)[C@@H](C)O3)[C@@H](C)O2)[C@H](O)[C@@H](C)O1 [Plicamycin] (10000 nM) | -45.3% | 55.1% | 39.3% | 114% | 68.9% | 40.9% | 109% | 96% | 82.2% | 45.7% | 79.8% | 87.9% | 88.4% | 82.1% |
| C[C@]12C=CC(=O)C=C1CC[C@@H]1[C@@H]2C(=O)C[C@@]2(C)[C@H]1CC[C@]2(O)C(=O)CO [Prednisone] (10000 nM) | 109% | 114% | 91.9% | 98.8% | 100% | – | 107% | 101% | 118% | 100% | 99.6% | 102% | 100% | 114% |
| CN1CCN(c2nc(C3=C(c4c[nH]c5ccccc45)C(=O)NC3=O)c3ccccc3n2)CC1 [Sotrastaurin] (10000 nM) | 94.2% | 115% | 128% | 68.4% | – | 118% | 68.3% | 98.4% | 93.5% | 107% | 99.7% | 102% | 101% | 102% |
| CC/C(=C(\c1ccccc1)c1ccc(OCCN(C)C)cc1)c1ccccc1 [Tamoxifen] (10000 nM) | 105% | 13.6% | – | 3.06% | 80.1% | 74.1% | – | 9.58% | 108% | 35.6% | 86.1% | 80.4% | 88% | 105% |
| Cn1nnc2c(C(N)=O)ncn2c1=O [Temozolomide] (10000 nM) | 104% | 108% | 105% | 105% | 102% | 111% | 94.4% | 101% | 93.6% | 101% | 75.3% | 99.2% | 97.3% | 109% |
| CC[C@@H]1C(=O)N(C)c2cnc(Nc3ccc(C(=O)N[C@H]4CC[C@H](N5CCN(CC6CC6)CC5)CC4)cc3OC)nc2N1C(C)C [Volasertib] (1000 nM) | 22.4% | 95% | 88.7% | 59.1% | 85.8% | -77.7% | 92.7% | 94.7% | -18.9% | 91.3% | 71% | 74.2% | 70.6% | 31.2% |
